Experimental data: the supplement of paper PMC11208160

assay: recombinant barcode read abundance after kanamycin selection (control-corrected) (log10(CPM+1)); higher = more efficient recombination; sequences stand for … in AGTGCAGAGAAAATCGGCCAGTTTTCTCTGCCTGCAGTCCGCATGCCGT…ATTTATGCAGCGGACTGCCTTTCTCCCAAAGTGATAAACCGGACAGTATCATGGACCGGTTTTCCCGGTAATCCGTATTTGCAAGGTTGGTTTCACT; site = the 11-nt target
Outline: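 A promoter, a target, a barcode and the first 104 bridge RNA bases under J23119 made up each oligo. Oligos were Gibson-cloned into a vector bearing the other 73 bp and a T7-inducible recombinase, then co-electroporated into E. coli with a donor plasmid and plated in duplicate on chloramphenicol/ampicillin LB agar (control) or chloramphenicol/ampicillin/kanamycin with 0.1 mM IPTG. Recombination efficiency is the averaged, control-corrected counts per million of recombinant-junction barcodes. Reported values are log10(CPM+1).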

Sequence | recombinant barcode read abundance (log10)
GAGTCCACTTGGGTTCTAACCTGTTGCGTGC [GAGTCCACTAC_LTGcore_CT_RTGcore_GC] (site GAGTCCACTAC) (LTG core: CT, RTG core: GC) | 0.0181
GAGTCCACTTGGGTTCTAACCTGTTGCGTGG [GAGTCCACTAC_LTGcore_CT_RTGcore_CC] (site GAGTCCACTAC) (LTG core: CT, RTG core: CC) | 0.0805
GAGTCCACTTGGGTTCTAACCTGTTGCGTTA [GAGTCCACTAC_LTGcore_CT_RTGcore_TA] (site GAGTCCACTAC) (LTG core: CT, RTG core: TA) | 0.102
GAGTCCACTTGGGTTCTAACCTGTTGCGTTC [GAGTCCACTAC_LTGcore_CT_RTGcore_GA] (site GAGTCCACTAC) (LTG core: CT, RTG core: GA) | 0.671
GAGTCCAGATGGGTTCTAACCTGTTGCGTTC [GAGTCCACTAC_LTGcore_GA_RTGcore_GA] (site GAGTCCACTAC) (LTG core: GA, RTG core: GA) | 0.157
GAGTCCAGTTGGGTTCTAACCTGTTGCGTAC [GAGTCCACTAC_LTGcore_GT_RTGcore_GT] (site GAGTCCACTAC) (LTG core: GT, RTG core: GT) | 0.0422
GAGTCCATATGGGTTCTAACCTGTTGCGTAG [GAGTCCACTAC_LTGcore_TA_RTGcore_CT] (site GAGTCCACTAC) (LTG core: TA, RTG core: CT) | 0.0591
GAGTCCATGTGGGTTCTAACCTGTTGCGTAG [GAGTCCACTAC_LTGcore_TG_RTGcore_CT] (site GAGTCCACTAC) (LTG core: TG, RTG core: CT) | 0.0936
GAGTCCTAGTGGGTTCTAACCTGTTGCCTCT [GAGTCCTCTAG_LTGcore_AG_RTGcore_AG] (site GAGTCCTCTAG) (LTG core: AG, RTG core: AG) | 0.0613
GAGTCCTCTTGGGTTCTAACCTGTTGCCTAC [GAGTCCTCTAG_LTGcore_CT_RTGcore_GT] (site GAGTCCTCTAG) (LTG core: CT, RTG core: GT) | 1.02
GAGTCCTCTTGGGTTCTAACCTGTTGCCTCT [GAGTCCTCTAG_LTGcore_CT_RTGcore_AG] (site GAGTCCTCTAG) (LTG core: CT, RTG core: AG) | 1.65
GAGTCCTCTTGGGTTCTAACCTGTTGCCTGG [GAGTCCTCTAG_LTGcore_CT_RTGcore_CC] (site GAGTCCTCTAG) (LTG core: CT, RTG core: CC) | 1.39
GAGTCCTCTTGGGTTCTAACCTGTTGCCTTG [GAGTCCTCTAG_LTGcore_CT_RTGcore_CA] (site GAGTCCTCTAG) (LTG core: CT, RTG core: CA) | 0.753
GAGTCCTGATGGGTTCTAACCTGTTGCCTAG [GAGTCCTCTAG_LTGcore_GA_RTGcore_CT] (site GAGTCCTCTAG) (LTG core: GA, RTG core: CT) | 0.62
GAGTCCTGATGGGTTCTAACCTGTTGCCTTC [GAGTCCTCTAG_LTGcore_GA_RTGcore_GA] (site GAGTCCTCTAG) (LTG core: GA, RTG core: GA) | 0.149
GAGTCCTGGTGGGTTCTAACCTGTTGCCTCC [GAGTCCTCTAG_LTGcore_GG_RTGcore_GG] (site GAGTCCTCTAG) (LTG core: GG, RTG core: GG) | 0.0289
GAGTCCTTTTGGGTTCTAACCTGTTGCCTAA [GAGTCCTCTAG_LTGcore_TT_RTGcore_TT] (site GAGTCCTCTAG) (LTG core: TT, RTG core: TT) | 0.219
GAGTCCTTTTGGGTTCTAACCTGTTGCCTAG [GAGTCCTCTAG_LTGcore_TT_RTGcore_CT] (site GAGTCCTCTAG) (LTG core: TT, RTG core: CT) | 0.153
GCGCGACAGTGGGTTCTAACCTGTTGCTTAG [GCGCGACCTAA_LTGcore_AG_RTGcore_CT] (site GCGCGACCTAA) (LTG core: AG, RTG core: CT) | 0.642
GCGCGACCTTGGGTTCTAACCTGTTGCTTAC [GCGCGACCTAA_LTGcore_CT_RTGcore_GT] (site GCGCGACCTAA) (LTG core: CT, RTG core: GT) | 0.23
GCGCGACCTTGGGTTCTAACCTGTTGCTTCC [GCGCGACCTAA_LTGcore_CT_RTGcore_GG] (site GCGCGACCTAA) (LTG core: CT, RTG core: GG) | 0.0108
GCGCGACCTTGGGTTCTAACCTGTTGCTTCT [GCGCGACCTAA_LTGcore_CT_RTGcore_AG] (site GCGCGACCTAA) (LTG core: CT, RTG core: AG) | 0.345
GCGCGACCTTGGGTTCTAACCTGTTGCTTGA [GCGCGACCTAA_LTGcore_CT_RTGcore_TC] (site GCGCGACCTAA) (LTG core: CT, RTG core: TC) | 0.0329

Sequence | recombinant barcode read abundance (log10)
GCGCGACGCTGGGTTCTAACCTGTTGCTTGC [GCGCGACCTAA_LTGcore_GC_RTGcore_GC] (site GCGCGACCTAA) (LTG core: GC, RTG core: GC) | 0.0645
GCGCGACGTTGGGTTCTAACCTGTTGCTTAC [GCGCGACCTAA_LTGcore_GT_RTGcore_GT] (site GCGCGACCTAA) (LTG core: GT, RTG core: GT) | 0.0144
GCGCGACTATGGGTTCTAACCTGTTGCTTAG [GCGCGACCTAA_LTGcore_TA_RTGcore_CT] (site GCGCGACCTAA) (LTG core: TA, RTG core: CT) | 0.038
GCGGGACACTGGGTTCTAACCTGTTGCCTGT [GCGGGACCTAG_LTGcore_AC_RTGcore_AC] (site GCGGGACCTAG) (LTG core: AC, RTG core: AC) | 0
GCGGGACAGTGGGTTCTAACCTGTTGCCTCT [GCGGGACCTAG_LTGcore_AG_RTGcore_AG] (site GCGGGACCTAG) (LTG core: AG, RTG core: AG) | 0
GCGGGACCCTGGGTTCTAACCTGTTGCCTGG [GCGGGACCTAG_LTGcore_CC_RTGcore_CC] (site GCGGGACCTAG) (LTG core: CC, RTG core: CC) | 1.52
GCGGGACGCTGGGTTCTAACCTGTTGCCTGC [GCGGGACCTAG_LTGcore_GC_RTGcore_GC] (site GCGGGACCTAG) (LTG core: GC, RTG core: GC) | 0.0844
GCGGGACGGTGGGTTCTAACCTGTTGCCTCC [GCGGGACCTAG_LTGcore_GG_RTGcore_GG] (site GCGGGACCTAG) (LTG core: GG, RTG core: GG) | 0.182
GGACACCAGTGGGTTCTAACCTGTTGCCTAG [GGACACCCTAG_LTGcore_AG_RTGcore_CT] (site GGACACCCTAG) (LTG core: AG, RTG core: CT) | 0.143
GGACACCAGTGGGTTCTAACCTGTTGCCTCT [GGACACCCTAG_LTGcore_AG_RTGcore_AG] (site GGACACCCTAG) (LTG core: AG, RTG core: AG) | 0.0138
GGACACCCGTGGGTTCTAACCTGTTGCCTAG [GGACACCCTAG_LTGcore_CG_RTGcore_CT] (site GGACACCCTAG) (LTG core: CG, RTG core: CT) | 1.2
GGACACCCTTGGGTTCTAACCTGTTGCCTAC [GGACACCCTAG_LTGcore_CT_RTGcore_GT] (site GGACACCCTAG) (LTG core: CT, RTG core: GT) | 1.33
GGACACCCTTGGGTTCTAACCTGTTGCCTAG [GGACACCCTAG_LTGcore_CT_RTGcore_CT] (site GGACACCCTAG) (LTG core: CT, RTG core: CT) | 2.43
GGACACCCTTGGGTTCTAACCTGTTGCCTTC [GGACACCCTAG_LTGcore_CT_RTGcore_GA] (site GGACACCCTAG) (LTG core: CT, RTG core: GA) | 0.732
GGACACCCTTGGGTTCTAACCTGTTGCCTTG [GGACACCCTAG_LTGcore_CT_RTGcore_CA] (site GGACACCCTAG) (LTG core: CT, RTG core: CA) | 1.32
GGACACCTCTGGGTTCTAACCTGTTGCCTAG [GGACACCCTAG_LTGcore_TC_RTGcore_CT] (site GGACACCCTAG) (LTG core: TC, RTG core: CT) | 0.117
GGCTCCCATTGGGTTCTAACCTGTTGCGGAT [GGCTCCCCTCC_LTGcore_AT_RTGcore_AT] (site GGCTCCCCTCC) (LTG core: AT, RTG core: AT) | 0.138
GGCTCCCCCTGGGTTCTAACCTGTTGCGGGG [GGCTCCCCTCC_LTGcore_CC_RTGcore_CC] (site GGCTCCCCTCC) (LTG core: CC, RTG core: CC) | 0.0622
GGCTCCCCGTGGGTTCTAACCTGTTGCGGAG [GGCTCCCCTCC_LTGcore_CG_RTGcore_CT] (site GGCTCCCCTCC) (LTG core: CG, RTG core: CT) | 0.116
GGCTCCCCGTGGGTTCTAACCTGTTGCGGCG [GGCTCCCCTCC_LTGcore_CG_RTGcore_CG] (site GGCTCCCCTCC) (LTG core: CG, RTG core: CG) | 0.0989
GGCTCCCCTTGGGTTCTAACCTGTTGCGGAG [GGCTCCCCTCC_LTGcore_CT_RTGcore_CT] (site GGCTCCCCTCC) (LTG core: CT, RTG core: CT) | 0.248
GGCTCCCCTTGGGTTCTAACCTGTTGCGGCG [GGCTCCCCTCC_LTGcore_CT_RTGcore_CG] (site GGCTCCCCTCC) (LTG core: CT, RTG core: CG) | 0.0875
